The record followed here is patent US11203600B2 (Denali Therapeutics Inc., priority 2017, dated 2021).

For the assay, the target named is GST-hRIPK1 (8-327) (Homo sapiens (Human), UniProt Q13546). The experiment in a line: Fluorescent Polarization Binding (FP Binding) assay, RIPK1. The settings on record: 10 nM GST-hRIPK1 (8-327), 5 nM fluorescent-labeled ligand, RT, 30 min, mean of at least two independent experiments. On the procedure: Fluorescent Polarization Binding (FP Binding) assay (Berger S. B. et al. (2015) Cell Death Discovery, 1: 15009; Maki J. L. et al. (2012) Anal Biochem., 427(2): 164-174) was performed in polystyrene low volume 384-well black plate, at RT in a final volume of 10.1 μl/well using 10 nM of GST-hRIPK1 (8-327) enzyme and 5 nM of fluorescent-labeled ligand (14-(2-{[3-({2-{[4-(cyanomethyl)phenyl]amino]-6-[(5-cyclopropyl-1H-pyrazol-3-yl)amino]-4-pyrimidinyl}amino) propyl}amino}-2-oxoethyl)-16,16,18,18-tetramethyl-6,7,7a,8a,9,10,16,18-octahydrobenzo [2″,3″]indolizino[8″,7″:5′,6′]pyrano [3′,2′:3,4]pyrido[1,2-a]indo1-5-ium-2-sulfonate.
Test compounds were serially diluted in DMSO at 100 fold final concentrations in the assay (1% DMSO final). In each well of a 384-well Plate were dispensed 0.1 μL of compound solution (or DMSO for controls) followed by 5 μL of GST-hRIPK1 (8-327) at twice the final concentrations in assay buffer (50 mM HEPES pH 7.5, 10 mM NaCl, 50 mM MgCl2, 0.02% CHAPS, 0.5 mM DTT and 0.01% Pluronic F127). For negative control the enzyme addition was replaced by assay buffer only.
After addition of 5 μL of fluorescentlabeled ligand at twice the final concentrations in assay buffer, the plate was incubated at RT for […]. At the end, the binding was measured as FP value with the Envision (PerkinElmer) plate reader using filter for an excitation λ=531 nm FP and an emission λ=595 nm FP (S & P-pol). GST-hRIPK1 (8-327) enzyme was produced via Baculovirus expression.
Test compound inhibition was expressed as percent inhibition of internal assay controls. For concentration response curves, normalized data is fit and IC50 determined using XL-fit (IDBS) for Excel. The IC50 values were averaged to determine a mean value, for a minimum of two independent experiments. Results are shown in Table 2 (RIPK1 IC50) values: +++=0.1 nM<IC50<100 nM; ++=100 nM<IC50<1 μM; +=1 μM<IC50).

Chain of GST-hRIPK1 (8-327) (Q13546 8-327): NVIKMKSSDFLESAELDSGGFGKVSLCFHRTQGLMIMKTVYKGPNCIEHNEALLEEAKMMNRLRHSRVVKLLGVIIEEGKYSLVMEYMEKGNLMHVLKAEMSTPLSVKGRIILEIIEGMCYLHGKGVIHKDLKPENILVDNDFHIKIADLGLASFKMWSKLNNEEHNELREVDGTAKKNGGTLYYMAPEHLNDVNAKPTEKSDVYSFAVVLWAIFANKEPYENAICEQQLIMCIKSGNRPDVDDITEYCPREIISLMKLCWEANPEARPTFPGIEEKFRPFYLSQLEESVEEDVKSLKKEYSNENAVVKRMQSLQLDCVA

As to `CC(C)(C(=O)N1CCOc2c(C#N)cncc2C1)C(F)F` [Example 29, 4-(3,3-difluoro-2,2-dimethyl-propanoyl)-3,5-dihydro-2H-pyrido[3,4-f][1,4]oxazepine-9-carbonitrile], the IC50 (commonly the concentration at which inhibition is half-maximal) was 0.1 to 100 nM.
The same measure for `CC(C)(C(=O)N1CCOc2c(C#N)cncc2C1)C1CC1` [Example 30, 4-(2-cyclopropyl-2-methyl-propanoyl)-3,5-dihydro-2H-pyrido[3,4-f][1,4]oxazepine-9-carbonitrile]: 0.1 to 100 nM; for `CC(C)(CC#N)C(=O)N1CCOc2c(C#N)cncc2C1` [Example 31, 4-(3-cyano-2,2-dimethyl-propanoyl)-3,5-dihydro-2H-pyrido[3,4-f][1,4]oxazepine-9-carbonitrile]: 100 to 1000 nM.
Then `CCC(C)(C)C(=O)N1CCOc2ccc(F)cc2C1` [Example 32, 1-(7-fluoro-2,3,4,5-tetrahydro-1,4-benzoxazepin-4-yl)-2,2-dimethylbutan-1-one], with 0.1 to 100 nM.
Then `CC(C)(C(=O)N1CCOc2ccc(F)cc2C1)C(F)F` [Example 33, 3,3-difluoro-1-(7-fluoro-2,3,4,5-tetrahydro-1,4-benzoxazepin-4-yl)-2,2-dimethylpropan-1-one], with 0.1 to 100 nM; and `CC(C)(C(=O)N1CCOc2ncccc2C1)C(F)F` [Example 34, 1-(2,3-dihydropyrido[3,2-f][1,4]oxazepin-4(5H)-yl)-3,3-difluoro-2,2-dimethylpropan-1-one], with more than 1000 nM; and `CC(C)(C(=O)N1CCOc2ccncc2C1)C(F)F` [Example 35, 1-(2,3-dihydropyrido[3,4-f][1,4]oxazepin-4(5H)-yl)-3,3-difluoro-2,2-dimethylpropan-1-one], with 100 to 1000 nM.
As to `CC1CN(C(=O)C(C)(C)C(F)F)Cc2ccccc2O1` (stereo not drawn) [Example 36, 3,3-difluoro-2,2-dimethyl-1-(2-methyl-2,3-dihydrobenzo[f][1,4]oxazepin-4(5H)-yl)propan-1-one], the 50% inhibitory concentration (IC50) is more than 1000 nM.
`CC(C)(C(=O)N1CCOc2c(Br)cc(F)cc2C1)C(F)F` [Example 37, 1-(9-bromo-7-fluoro-3,5-dihydro-2H-1,4-benzoxazepin-4-yl)-3,3-difluoro-2,2-dimethyl-propan-1-one] registered an IC50 of 100 to 1000 nM.
Take `CC(C)(C(=O)N1Cc2ccccc2CCO1)C(F)F` [Example 38, 3,3-difluoro-2,2-dimethyl-1-(1,2,4,5-tetrahydro-3,2-benzoxazepin-2-yl)propan-1-one]: the 50% inhibitory concentration (IC50) was more than 1000 nM.
Turning to `O=C(C1CCN(c2ncc(F)cn2)CC1)N1Cc2ccccc2CCO1` [Example 39, 2-[1-(5-fluoropyrimidin-2-yl)piperidine-4-carbonyl]-1,2,4,5-tetrahydro-3,2-benzoxazepine], the concentration for half-maximal inhibition (IC50) is 100 to 1000 nM.
Turning to `CC1(C(=O)N2CCOc3c(C#N)cncc3C2)CCN(c2ncc(F)cn2)CC1` [Example 40, 4-[1-(5-fluoropyrimidin-2-yl)-4-methyl-piperidine-4-carbonyl]-3,5-dihydro-2H-pyrido[3,4-f][1,4]oxazepine-9-carbonitrile], the IC50 was in the range of 0.1 to 100 nM.
Take `CC1(C(=O)N2CCOc3c(C#N)cncc3C2)CCOCC1` [Example 41, 4-(4-methyltetrahydropyran-4-carbonyl)-3,5-dihydro-2H-pyrido[3,4-f][1,4]oxazepine-9-carbonitrile]: the IC50 was 100 to 1000 nM.
The same measure for `CC1(C(=O)N2CCOc3c(C#N)cncc3C2)CCOC1` (stereo not drawn) [Example 42, 4-(3-methyltetrahydrofuran-3-carbonyl)-3,5-dihydro-2H-pyrido[3,4-f][1,4]oxazepine-9-carbonitrile]: 100 to 1000 nM; for `COC(C)(C)C(=O)N1CCOc2c(C#N)cncc2C1` [Example 43, 4-(2-methoxy-2-methyl-propanoyl)-3,5-dihydro-2H-pyrido[3,4-f][1,4]oxazepine-9-carbonitrile]: 100 to 1000 nM.
Then `N#Cc1cncc2c1OCCN(C(=O)C13CC(C1)C3)C2` [Example 44, 4-(bicyclo[1.1.1]pentane-3-carbonyl)-3,5-dihydro-2H-pyrido[3,4-f][1,4]oxazepine-9-carbonitrile], with more than 1000 nM.
As to `CC(C)(C(=O)N1CCOc2c(C#N)cncc2C1)C(F)(F)F` [Example 45, 4-(3,3,3-trifluoro-2,2-dimethyl-propanoyl)-3,5-dihydro-2H-pyrido[3,4-f][1,4]oxazepine-9-carbonitrile], the IC50 lay in the range of 0.1 to 100 nM.
`N#Cc1cncc2c1OCCN(C(=O)C1(C3CC3)CC1)C2` [Example 46, 4-(1-cyclopropylcyclopropanecarbonyl)-3,5-dihydro-2H-pyrido[3,4-f][1,4]oxazepine-9-carbonitrile]: the IC50 fell in the range of 100 to 1000 nM.
The same measure for `CC(C)(CC(F)(F)F)C(=O)N1CCOc2c(C#N)cncc2C1` [Example 47, 4-(4,4,4-trifluoro-2,2-dimethyl-butanoyl)-3,5-dihydro-2H-pyrido[3,4-f][1,4]oxazepine-9-carbonitrile]: 0.1 to 100 nM; for `N#Cc1cncc2c1OCCN(C(=O)C1(C(F)(F)F)CC1)C2` [Example 48, 4-[1-(trifluoromethyl)cyclopropanecarbonyl]-3,5-dihydro-2H-pyrido[3,4-f][1,4]oxazepine-9-carbonitrile]: 100 to 1000 nM; for `N#Cc1cncc2c1OCCN(C(=O)C1(C(F)F)CCC1)C2` [Example 49, 4-[1-(difluoromethyl)cyclobutanecarbonyl]-3,5-dihydro-2H-pyrido[3,4-f][1,4]oxazepine-9-carbonitrile]: 0.1 to 100 nM.
The same measure for `CC1(C(=O)N2CCOc3c(C#N)cncc3C2)CC1(F)F` (stereo not drawn) [Example 50, 4-(2,2-difluoro-1-methyl-cyclopropanecarbonyl)-3,5-dihydro-2H-pyrido[3,4-f][1,4]oxazepine-9-carbonitrile]: 100 to 1000 nM; for `CC(C)(COC(F)(F)F)C(=O)N1CCOc2c(C#N)cncc2C1` [Example 51, 4-[2,2-dimethyl-3-(trifluoromethoxy)propanoyl]-3,5-dihydro-2H-pyrido[3,4-f][1,4]oxazepine-9-carbonitrile]: 0.1 to 100 nM; for `C[C@@H]1COc2c(C#N)cncc2CN1C(=O)C(C)(C)C(F)F` [Example 52, (3R)-4-(3,3-difluoro-2,2-dimethyl-propanoyl)-3-methyl-3,5-dihydro-2H-pyrido[3,4-f][1,4]oxazepine-9-carbonitrile]: 0.1 to 100 nM.
Then `N#Cc1cncc2c1OCCN(C(=O)C1(C(F)(F)F)CCC1)C2` [Example 53, 4-[1-(trifluoromethyl)cyclobutanecarbonyl]-3,5-dihydro-2H-pyrido[3,4-f][1,4]oxazepine-9-carbonitrile], with 100 to 1000 nM; and `CCC(C)(C)C(=O)N1CCOc2c(C#N)cncc2C1` [Example 54, 4-(2,2-dimethylbutanoyl)-3,5-dihydro-2H-pyrido[3,4-f][1,4]oxazepine-9-carbonitrile], with 0.1 to 100 nM.
`CC(C)(C(=O)N1CCOc2c(F)cncc2C1)C(F)F` [Example 55, 3,3-difluoro-1-(9-fluoro-3,5-dihydro-2H-pyrido[3,4-f][1,4]oxazepin-4-yl)-2,2-dimethyl-propan-1-one] displayed an IC50 of 100 to 1000 nM.
In turn, `CC(C(=O)N1CCOc2c(C#N)cncc2C1)(C(F)F)C1CC1` (stereo not drawn) [Example 56, 4-(2-cyclopropyl-3,3-difluoro-2-methyl-propanoyl)-3,5-dihydro-2H-pyrido[3,4-f][1,4]oxazepine-9-carbonitrile] returned an IC50 of 0.1 to 100 nM.
Then `CCC(C)(C(=O)N1CCOc2c(C#N)cncc2C1)C(F)F` (stereo not drawn) [Example 57, 4-(2-(difluoromethyl)-2-methylbutanoyl)-2,3,4,5-tetrahydropyrido[3,4-f][1,4]oxazepine-9-carbonitrile], with 0.1 to 100 nM.
`CC(C)(CC1CC1)C(=O)N1CCOc2c(C#N)cncc2C1` [Example 58, 4-(3-cyclopropyl-2,2-dimethyl-propanoyl)-3,5-dihydro-2H-pyrido[3,4-f][1,4]oxazepine-9-carbonitrile] came in with an IC50 of 100 to 1000 nM.
`CC(C)(C(=O)N1CCOc2c(cnc(Cl)c2C#N)C1)C(F)F` [Example 59, 8-chloro-4-(3,3-difluoro-2,2-dimethyl-propanoyl)-3,5-dihydro-2H-pyrido[3,4-f][1,4]oxazepine-9-carbonitrile]: the IC50 was in the range of 100 to 1000 nM.
The same measure for `CC(C)(CCF)C(=O)N1CCOc2c(C#N)cncc2C1` [Example 60, 4-(4-fluoro-2,2-dimethyl-butanoyl)-3,5-dihydro-2H-pyrido[3,4-f][1,4]oxazepine-9-carbonitrile]: 100 to 1000 nM.
The same measure for `CC(C)(C(=O)N1CCOc2c(Cl)cncc2C1)C(F)F` [Example 61, 1-(9-chloro-3,5-dihydro-2H-pyrido[3,4-f][1,4]oxazepin-4-yl)-3,3-difluoro-2,2-dimethyl-propan-1-one]: 100 to 1000 nM.
